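Values below derive from 48-hour exposures of cells grown in 96-well plates, with endpoints linearly interpolated between the two concentrations bracketing the appropriate inhibition level. The concentration for full growth arrest is given as TGI.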
Assays:
Experiment in all cases: DTP human tumour cell line panel, 48 h
786-0 renal = tested on: 786-0 renal
A498 renal = tested on: A498 renal
A549 NSCLC = tested on: A549 NSCLC
ACHN renal = tested on: ACHN renal
BT-549 breast = tested on: BT-549 breast
CAKI-1 renal = tested on: CAKI-1 renal
CCRF-CEM leukemia = tested on: CCRF-CEM leukemia
COLO 205 colon = tested on: COLO 205 colon
DU-145 prostate = tested on: DU-145 prostate
HCC-2998 colon = tested on: HCC-2998 colon
HCT-116 colon = tested on: HCT-116 colon
HCT-15 colon = tested on: HCT-15 colon
HL-60(TB) leukemia = tested on: HL-60(TB) leukemia
HOP-62 NSCLC = tested on: HOP-62 NSCLC
HOP-92 NSCLC = tested on: HOP-92 NSCLC
HS 578T breast = tested on: HS 578T breast
HT29 colon = tested on: HT29 colon
IGROV1 ovarian = tested on: IGROV1 ovarian
K-562 leukemia = tested on: K-562 leukemia
KM12 colon = tested on: KM12 colon
LOX IMVI melanoma = tested on: LOX IMVI melanoma
M14 melanoma = tested on: M14 melanoma
MALME-3M melanoma = tested on: MALME-3M melanoma
MCF7 breast = tested on: MCF7 breast
MDA-MB-231 breast = tested on: MDA-MB-231 breast
MDA-MB-435 = tested on: MDA-MB-435
MDA-N = tested on: MDA-N
MOLT-4 leukemia = tested on: MOLT-4 leukemia
NCI-H226 lung = tested on: NCI-H226 lung
NCI-H23 lung = tested on: NCI-H23 lung
NCI-H460 lung = tested on: NCI-H460 lung
NCI-H522 lung = tested on: NCI-H522 lung
NCI/ADR-RES ovarian = tested on: NCI/ADR-RES ovarian
OVCAR-3 ovarian = tested on: OVCAR-3 ovarian
OVCAR-4 ovarian = tested on: OVCAR-4 ovarian
OVCAR-5 ovarian = tested on: OVCAR-5 ovarian
OVCAR-8 ovarian = tested on: OVCAR-8 ovarian
PC-3 prostate = tested on: PC-3 prostate
RPMI-8226 leukemia = tested on: RPMI-8226 leukemia
RXF 393 renal = tested on: RXF 393 renal
SF-268 CNS = tested on: SF-268 CNS
SF-295 CNS = tested on: SF-295 CNS
SF-539 CNS = tested on: SF-539 CNS
SK-MEL-2 melanoma = tested on: SK-MEL-2 melanoma
SK-MEL-28 melanoma = tested on: SK-MEL-28 melanoma
SK-MEL-5 melanoma = tested on: SK-MEL-5 melanoma
SK-OV-3 ovarian = tested on: SK-OV-3 ovarian
SN12C renal = tested on: SN12C renal
SNB-19 CNS = tested on: SNB-19 CNS
SNB-75 CNS = tested on: SNB-75 CNS
SR leukemia = tested on: SR leukemia
SW-620 colon = tested on: SW-620 colon
T-47D breast = tested on: T-47D breast
TK-10 renal = tested on: TK-10 renal
U251 CNS = tested on: U251 CNS
UACC-257 melanoma = tested on: UACC-257 melanoma
UACC-62 melanoma = tested on: UACC-62 melanoma
UO-31 renal = tested on: UO-31 renal
EKVX NSCLC = tested on: EKVX NSCLC

CC(=O)NC1CCC(NC(=O)OC(C)(C)C)C(NC(=O)OC(C)(C)C)C1 (stereo unspecified)
TGI (786-0 renal): > 100 µM | TGI (A498 renal): > 100 µM | TGI (A549 NSCLC): > 100 µM | TGI (ACHN renal): > 100 µM | TGI (BT-549 breast): > 100 µM | TGI (CAKI-1 renal): > 100 µM | TGI (CCRF-CEM leukemia): > 100 µM | TGI (COLO 205 colon): > 100 µM | TGI (DU-145 prostate): > 100 µM | TGI (HCC-2998 colon): > 100 µM | TGI (HCT-116 colon): > 100 µM | TGI (HCT-15 colon): > 100 µM | TGI (HL-60(TB) leukemia): > 100 µM | TGI (HOP-62 NSCLC): > 100 µM | TGI (HOP-92 NSCLC): > 100 µM | TGI (HS 578T breast): > 100 µM | TGI (HT29 colon): > 100 µM | TGI (IGROV1 ovarian): > 100 µM | TGI (K-562 leukemia): > 100 µM | TGI (KM12 colon): > 100 µM | TGI (LOX IMVI melanoma): > 100 µM | TGI (M14 melanoma): > 100 µM | TGI (MALME-3M melanoma): > 100 µM | TGI (MCF7 breast): > 100 µM | TGI (MDA-MB-231 breast): > 100 µM | TGI (MDA-MB-435): > 100 µM | TGI (MDA-N): > 100 µM | TGI (MOLT-4 leukemia): > 100 µM | TGI (NCI-H226 lung): > 100 µM | TGI (NCI-H23 lung): > 100 µM | TGI (NCI-H460 lung): > 100 µM | TGI (NCI-H522 lung): > 100 µM | TGI (NCI/ADR-RES ovarian): > 100 µM | TGI (OVCAR-3 ovarian): > 100 µM | TGI (OVCAR-4 ovarian): > 100 µM | TGI (OVCAR-5 ovarian): > 100 µM | TGI (OVCAR-8 ovarian): > 100 µM | TGI (PC-3 prostate): > 100 µM | TGI (RPMI-8226 leukemia): > 100 µM | TGI (RXF 393 renal): > 100 µM | TGI (SF-268 CNS): > 100 µM | TGI (SF-295 CNS): > 100 µM | TGI (SF-539 CNS): > 100 µM | TGI (SK-MEL-2 melanoma): > 100 µM | TGI (SK-MEL-28 melanoma): > 100 µM | TGI (SK-MEL-5 melanoma): > 100 µM | TGI (SK-OV-3 ovarian): > 100 µM | TGI (SN12C renal): > 100 µM | TGI (SNB-19 CNS): > 100 µM | TGI (SNB-75 CNS): > 100 µM | TGI (SR leukemia): > 100 µM | TGI (SW-620 colon): > 100 µM | TGI (T-47D breast): > 100 µM | TGI (TK-10 renal): > 100 µM | TGI (U251 CNS): > 100 µM | TGI (UACC-257 melanoma): > 100 µM | TGI (UACC-62 melanoma): > 100 µM | TGI (UO-31 renal): > 100 µM

CC1=NN(C(=O)CC(=O)Nc2cccc(Cl)c2)C(=O)C1N=Nc1ccc(S(=O)(=O)c2ccc(N=NC3C(=O)N(C(=O)CC(=O)Nc4cccc(Cl)c4)N=C3C)cc2)cc1 (stereo unspecified)
TGI (786-0 renal): > 100 µM | TGI (A549 NSCLC): > 100 µM | TGI (ACHN renal): > 100 µM | TGI (BT-549 breast): > 100 µM | TGI (CAKI-1 renal): > 100 µM | TGI (CCRF-CEM leukemia): > 100 µM | TGI (COLO 205 colon): > 100 µM | TGI (DU-145 prostate): > 100 µM | TGI (EKVX NSCLC): > 100 µM | TGI (HCC-2998 colon): > 100 µM | TGI (HCT-116 colon): > 100 µM | TGI (HCT-15 colon): > 100 µM | TGI (HL-60(TB) leukemia): > 100 µM | TGI (HOP-62 NSCLC): > 100 µM | TGI (HOP-92 NSCLC): > 100 µM | TGI (HS 578T breast): > 100 µM | TGI (HT29 colon): > 100 µM | TGI (IGROV1 ovarian): > 100 µM | TGI (K-562 leukemia): > 100 µM | TGI (KM12 colon): > 100 µM | TGI (LOX IMVI melanoma): > 100 µM | TGI (M14 melanoma): > 100 µM | TGI (MALME-3M melanoma): > 100 µM | TGI (MCF7 breast): > 100 µM | TGI (MDA-MB-231 breast): 52.2 µM | TGI (MDA-MB-435): > 100 µM | TGI (MDA-N): > 100 µM | TGI (MOLT-4 leukemia): > 100 µM | TGI (NCI-H226 lung): > 100 µM | TGI (NCI-H23 lung): > 100 µM | TGI (NCI-H460 lung): > 100 µM | TGI (NCI-H522 lung): > 100 µM | TGI (NCI/ADR-RES ovarian): > 100 µM | TGI (OVCAR-3 ovarian): > 100 µM | TGI (OVCAR-4 ovarian): > 100 µM | TGI (OVCAR-5 ovarian): > 100 µM | TGI (OVCAR-8 ovarian): > 100 µM | TGI (PC-3 prostate): > 100 µM | TGI (RPMI-8226 leukemia): > 100 µM | TGI (RXF 393 renal): > 100 µM | TGI (SF-268 CNS): > 100 µM | TGI (SF-295 CNS): > 100 µM | TGI (SF-539 CNS): 55.6 µM | TGI (SK-MEL-2 melanoma): > 100 µM | TGI (SK-MEL-28 melanoma): > 100 µM | TGI (SK-MEL-5 melanoma): > 100 µM | TGI (SK-OV-3 ovarian): > 100 µM | TGI (SN12C renal): > 100 µM | TGI (SNB-19 CNS): > 100 µM | TGI (SNB-75 CNS): > 100 µM | TGI (SR leukemia): > 100 µM | TGI (SW-620 colon): > 100 µM | TGI (T-47D breast): > 100 µM | TGI (TK-10 renal): > 100 µM | TGI (U251 CNS): > 100 µM | TGI (UACC-257 melanoma): > 100 µM | TGI (UACC-62 melanoma): > 100 µM | TGI (UO-31 renal): > 100 µM

— PubChem BioAssay (NCI)
